Read-outs that look alike come from different tables or passages of the source.
Columns and labels:
Assay type in all cases: cell-based
SMARCA2 [1] = biological target: T1, SMARCA2 (Homo sapiens, UniProt P51531); assay: SMARCA2 degradation in cell lines, western blot
wild-type SMARCA4 cells = assay: Colony assay / cell proliferation, wild-type SMARCA4 cell lines as a group; conditions: HCC44, H2122, H1792, H1975; 0.001-10 μm
Experimental: (§1) Cell lines with wild-type SMARCA4 (HCC44, H2122, H1792 and H1975) and cell lines with mutant SMARCA4 (H1693, HCC515, H322, and H1299) were seeded in appropriate dilutions to form colonies in about 1-3 weeks. Cells were treated with ACBI1 or Compound 101 at concentrations of 0.001, 0.01, 0.1, 1, and 10 μm. Colonies were fixed with glutaraldehyde (6% v/v), stained with crystal violet (0.5% w/v) and the percent area of colonies was determined (FIGS. 3A and 3B). In cell lines with wild-type SMARCA4, inhibition of colony growth was more pronounced after treatment with ACBI1 than Compound 101 (FIG. 3A).

mutant SMARCA4 cells = assay: Colony assay / cell proliferation, mutant SMARCA4 cell lines as a group; conditions: H1693, HCC515, H322, H1299; 0.001-10 μm
Experimental: as §1

SMARCA2 [2] = biological target: T1, SMARCA2; assay: SMARCA2 degradation in cell lines, western blot; conditions: for SMARCA2 degradation (western blot, in words): 0.001-10 μm; for SMARCA2 expression at 100 nM (in words): H1792 and H1299 cells
Experimental: Cell lines with wild-type SMARCA4 (H1975, H1792, H2122, and H441) were treated with DMSO or 0.001, 0.01, 0.1, 1, or 10 μm of ACBI1 (degrader of SMARCA2, SMARCA4 and polybromo-associated BAF complex PBRM1) or Compound 101 and expression levels of SMARCA2 (FIG. 2A) and SMARCA4 (FIG. 2B) were detected by western blot.
(§2) Cell lines with wild-type SMARCA4 (H1792) and mutant SMARCA4 (H1299) were treated for 72 h or 96 h with DMSO or 0.001, 0.01, 0.1, 1, or 10 μm Compound 103 and analyzed by western blot for SMARCA2, SMARCA4, and PBRM1 expression (FIGS. 4A, 4B, and 4C).
(§3) Cell lines with wild-type SMARCA4 (H1792) and mutant SMARCA4 (H1299) were treated for 72 h or 96 h with DMSO or 0.001, 0.01, 0.1, 1, or 10 μm Compound 102 and analyzed by western blot for SMARCA2, SMARCA4, and PBRM1 expression (FIGS. 5A, 5B, and 5C).
(§4) Cell lines with wild-type SMARCA4 (H1975) were treated with DMSO or 0.001, 0.01, 0.1, 1, or 10 μm of Compounds 104, 105, 106, 107, or 108 and analyzed by western blot for SMARCA2, SMARCA4, and PBRM1 expression (FIGS. 6A and 6B).

SMARCA4 [3] = biological target: SMARCA4 (Homo sapiens, UniProt P51532); assay: SMARCA4 degradation in cell lines, western blot; conditions: for DC50: read-out: SMARCA4 DC50
Chain of SMARCA4 (Homo sapiens, UniProt P51532) (P51532 whole entry): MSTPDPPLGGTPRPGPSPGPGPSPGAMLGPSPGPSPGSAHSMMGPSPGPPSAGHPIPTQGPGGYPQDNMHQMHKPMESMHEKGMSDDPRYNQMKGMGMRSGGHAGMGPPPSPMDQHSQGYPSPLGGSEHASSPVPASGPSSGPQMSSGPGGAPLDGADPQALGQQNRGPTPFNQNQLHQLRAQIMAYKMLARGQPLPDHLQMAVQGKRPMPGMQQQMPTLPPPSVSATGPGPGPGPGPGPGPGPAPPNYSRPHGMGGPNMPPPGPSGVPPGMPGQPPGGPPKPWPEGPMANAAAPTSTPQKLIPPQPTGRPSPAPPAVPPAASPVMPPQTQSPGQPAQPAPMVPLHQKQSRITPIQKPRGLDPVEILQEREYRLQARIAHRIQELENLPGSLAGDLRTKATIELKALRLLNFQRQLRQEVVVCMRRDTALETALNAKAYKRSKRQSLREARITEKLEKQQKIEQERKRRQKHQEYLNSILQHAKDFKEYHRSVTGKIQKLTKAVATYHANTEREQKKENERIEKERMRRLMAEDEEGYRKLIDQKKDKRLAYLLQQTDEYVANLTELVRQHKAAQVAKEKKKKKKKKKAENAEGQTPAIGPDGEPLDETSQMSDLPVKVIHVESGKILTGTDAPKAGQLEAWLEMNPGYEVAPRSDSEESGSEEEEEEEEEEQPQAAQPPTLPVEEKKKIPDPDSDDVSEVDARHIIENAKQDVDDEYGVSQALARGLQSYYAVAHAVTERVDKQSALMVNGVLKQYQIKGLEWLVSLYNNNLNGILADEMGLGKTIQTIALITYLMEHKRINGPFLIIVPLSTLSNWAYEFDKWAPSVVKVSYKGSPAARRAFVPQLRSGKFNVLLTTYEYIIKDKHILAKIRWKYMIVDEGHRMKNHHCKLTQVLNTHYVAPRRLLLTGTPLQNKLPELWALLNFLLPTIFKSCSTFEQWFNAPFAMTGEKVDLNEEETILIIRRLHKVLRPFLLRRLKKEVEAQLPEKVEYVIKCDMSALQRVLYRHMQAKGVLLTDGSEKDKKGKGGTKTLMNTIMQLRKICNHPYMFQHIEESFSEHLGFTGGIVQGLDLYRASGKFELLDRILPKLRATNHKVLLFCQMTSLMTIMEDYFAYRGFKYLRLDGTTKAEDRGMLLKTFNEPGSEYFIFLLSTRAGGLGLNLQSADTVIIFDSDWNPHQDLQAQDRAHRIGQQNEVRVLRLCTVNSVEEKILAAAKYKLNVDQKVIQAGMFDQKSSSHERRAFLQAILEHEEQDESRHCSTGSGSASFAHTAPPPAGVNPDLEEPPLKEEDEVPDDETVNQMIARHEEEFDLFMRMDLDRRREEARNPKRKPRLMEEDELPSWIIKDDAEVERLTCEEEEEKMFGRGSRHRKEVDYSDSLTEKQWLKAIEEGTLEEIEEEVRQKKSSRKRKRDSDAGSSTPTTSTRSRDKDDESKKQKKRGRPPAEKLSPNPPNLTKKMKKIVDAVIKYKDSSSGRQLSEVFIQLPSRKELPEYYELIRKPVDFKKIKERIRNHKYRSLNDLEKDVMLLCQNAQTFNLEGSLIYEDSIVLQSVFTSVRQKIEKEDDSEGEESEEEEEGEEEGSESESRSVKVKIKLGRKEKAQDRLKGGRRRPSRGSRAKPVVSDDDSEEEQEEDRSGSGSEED

PBRM1 = biological target: T2, PBRM1 (Homo sapiens, UniProt Q86U86); assay: PBRM1 expression in cell lines, western blot; conditions: H1792 and H1299 cells, 72 h or 96 h, 0.001-10 μm
T2 construct: heterobifunctional compounds, which recruit endogenous proteins to a ubiquitin ligase for degradation; endogenous in cells; host or cells: H1792, H1299, H1975
T2 sequence (Q86U86 whole entry): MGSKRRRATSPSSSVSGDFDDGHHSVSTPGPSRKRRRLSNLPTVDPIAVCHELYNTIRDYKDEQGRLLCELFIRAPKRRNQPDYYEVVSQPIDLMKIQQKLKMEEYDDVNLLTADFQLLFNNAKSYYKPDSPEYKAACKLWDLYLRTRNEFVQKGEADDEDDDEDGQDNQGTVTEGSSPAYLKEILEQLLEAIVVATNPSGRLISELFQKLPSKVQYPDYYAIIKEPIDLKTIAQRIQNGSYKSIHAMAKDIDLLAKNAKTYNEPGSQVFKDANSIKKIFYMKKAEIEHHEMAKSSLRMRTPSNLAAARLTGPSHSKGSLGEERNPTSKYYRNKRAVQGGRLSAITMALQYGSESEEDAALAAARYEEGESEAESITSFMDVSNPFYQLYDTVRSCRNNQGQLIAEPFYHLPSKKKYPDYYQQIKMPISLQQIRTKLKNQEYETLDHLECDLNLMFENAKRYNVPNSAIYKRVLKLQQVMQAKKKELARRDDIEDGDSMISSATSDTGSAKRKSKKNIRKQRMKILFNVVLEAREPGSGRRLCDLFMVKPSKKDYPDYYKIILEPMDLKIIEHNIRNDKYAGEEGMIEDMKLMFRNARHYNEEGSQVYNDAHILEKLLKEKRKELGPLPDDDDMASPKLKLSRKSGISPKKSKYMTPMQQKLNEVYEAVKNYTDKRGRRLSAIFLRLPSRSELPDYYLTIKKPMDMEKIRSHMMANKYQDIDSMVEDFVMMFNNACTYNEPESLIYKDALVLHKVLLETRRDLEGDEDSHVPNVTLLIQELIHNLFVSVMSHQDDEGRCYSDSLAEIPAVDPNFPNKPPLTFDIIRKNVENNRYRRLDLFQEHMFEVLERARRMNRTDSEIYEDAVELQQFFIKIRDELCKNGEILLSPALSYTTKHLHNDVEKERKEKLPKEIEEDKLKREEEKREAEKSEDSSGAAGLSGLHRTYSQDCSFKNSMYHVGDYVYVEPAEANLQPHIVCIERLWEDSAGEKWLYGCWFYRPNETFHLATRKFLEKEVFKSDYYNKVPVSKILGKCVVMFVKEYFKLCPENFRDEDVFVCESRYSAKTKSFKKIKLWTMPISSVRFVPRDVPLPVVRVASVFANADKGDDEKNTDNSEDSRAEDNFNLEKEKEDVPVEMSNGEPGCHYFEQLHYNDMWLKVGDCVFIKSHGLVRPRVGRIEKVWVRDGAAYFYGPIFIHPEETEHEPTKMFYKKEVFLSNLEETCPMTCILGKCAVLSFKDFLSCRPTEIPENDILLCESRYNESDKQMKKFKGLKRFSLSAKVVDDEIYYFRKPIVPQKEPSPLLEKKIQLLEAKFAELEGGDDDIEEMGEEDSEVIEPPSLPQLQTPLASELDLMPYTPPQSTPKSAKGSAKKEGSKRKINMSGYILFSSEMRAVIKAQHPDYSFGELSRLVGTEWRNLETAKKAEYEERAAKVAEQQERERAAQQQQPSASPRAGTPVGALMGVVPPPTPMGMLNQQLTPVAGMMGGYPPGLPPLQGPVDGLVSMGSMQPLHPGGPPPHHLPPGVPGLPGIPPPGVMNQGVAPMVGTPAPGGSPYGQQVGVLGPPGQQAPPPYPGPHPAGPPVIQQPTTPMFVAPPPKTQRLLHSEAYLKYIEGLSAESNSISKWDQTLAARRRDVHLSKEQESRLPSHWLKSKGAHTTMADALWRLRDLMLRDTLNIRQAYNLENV
Experimental: as §2, §3, §4

SMARCA4 [4] = assay: SMARCA4 degradation in cell lines, western blot; conditions: H1792 and H1299 cells, 72 h or 96 h, 0.001-10 μm
[5] = H441, wild-type SMARCA4 cell line
[6] = H1792, wild-type SMARCA4 cell line
[7] = H2122, wild-type SMARCA4 cell line
[8] = H1975, wild-type SMARCA4 cell line
[9] = H1792 (wild-type SMARCA4) and H1299 (mutant SMARCA4) cells, 72 h or 96 h

T1 sequence (P51531 whole entry): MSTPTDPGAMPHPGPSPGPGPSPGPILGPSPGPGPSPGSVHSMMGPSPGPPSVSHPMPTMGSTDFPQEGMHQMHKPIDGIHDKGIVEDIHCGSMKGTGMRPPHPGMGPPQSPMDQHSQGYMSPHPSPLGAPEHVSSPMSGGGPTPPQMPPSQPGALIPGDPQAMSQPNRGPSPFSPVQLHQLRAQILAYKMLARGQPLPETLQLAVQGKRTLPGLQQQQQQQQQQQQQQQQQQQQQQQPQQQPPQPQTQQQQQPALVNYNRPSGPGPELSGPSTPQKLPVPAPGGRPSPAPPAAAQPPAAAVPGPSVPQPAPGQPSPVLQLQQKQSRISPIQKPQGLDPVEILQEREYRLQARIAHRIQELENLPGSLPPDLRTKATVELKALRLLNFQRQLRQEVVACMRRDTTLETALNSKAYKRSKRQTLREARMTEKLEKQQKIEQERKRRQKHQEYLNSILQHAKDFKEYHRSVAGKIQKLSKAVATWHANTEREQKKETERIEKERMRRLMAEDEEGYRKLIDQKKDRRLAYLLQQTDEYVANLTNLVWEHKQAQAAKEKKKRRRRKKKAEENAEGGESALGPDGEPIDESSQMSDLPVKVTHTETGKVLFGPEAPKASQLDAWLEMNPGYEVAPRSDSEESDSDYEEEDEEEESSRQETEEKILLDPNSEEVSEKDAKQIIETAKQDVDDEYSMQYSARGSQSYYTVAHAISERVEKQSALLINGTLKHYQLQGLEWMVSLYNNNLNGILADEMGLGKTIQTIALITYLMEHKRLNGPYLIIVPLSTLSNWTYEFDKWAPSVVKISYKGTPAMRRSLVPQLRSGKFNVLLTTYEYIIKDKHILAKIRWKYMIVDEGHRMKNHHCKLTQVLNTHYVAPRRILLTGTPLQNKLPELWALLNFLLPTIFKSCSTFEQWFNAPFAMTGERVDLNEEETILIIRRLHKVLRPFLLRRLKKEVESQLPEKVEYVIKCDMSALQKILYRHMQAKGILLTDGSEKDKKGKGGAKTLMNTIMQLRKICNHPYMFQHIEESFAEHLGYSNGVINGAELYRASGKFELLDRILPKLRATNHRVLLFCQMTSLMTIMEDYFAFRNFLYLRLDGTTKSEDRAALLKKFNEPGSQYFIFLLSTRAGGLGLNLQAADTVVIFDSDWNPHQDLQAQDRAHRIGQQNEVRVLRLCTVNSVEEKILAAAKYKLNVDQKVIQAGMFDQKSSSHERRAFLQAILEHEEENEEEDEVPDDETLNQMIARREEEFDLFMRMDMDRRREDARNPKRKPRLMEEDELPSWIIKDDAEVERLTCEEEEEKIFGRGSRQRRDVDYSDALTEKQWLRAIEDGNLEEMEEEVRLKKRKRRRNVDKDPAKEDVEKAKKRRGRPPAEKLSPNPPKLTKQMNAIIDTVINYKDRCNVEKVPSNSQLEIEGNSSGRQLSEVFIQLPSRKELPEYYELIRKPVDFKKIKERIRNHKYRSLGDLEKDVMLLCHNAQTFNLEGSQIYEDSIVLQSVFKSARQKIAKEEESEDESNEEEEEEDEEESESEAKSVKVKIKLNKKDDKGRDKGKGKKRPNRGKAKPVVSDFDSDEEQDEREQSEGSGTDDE

**Q.** For `Cc1ncsc1-c1ccc(CNC(=O)[C@@H]2C[C@@H](O)CN2C(=O)[C@@H](NC(=O)C2(F)CC2)C(C)(C)C)c(OCCOc2ccc(CN3CCN(c4cc(-c5ccccc5O)nnc4N)CC3)cc2)c1` [ACBI1, reference compound], which “SMARCA2 Dmax (%)” value (SMARCA2 [1]; [5]) is on record?
**A.** The value was 97%.

**Q.** What about the “SMARCA2 Dmax (%)” value (SMARCA2 [1]; [6]) of the same compound?
**A.** Its value is 97%.

**Q.** What about the “SMARCA2 Dmax (%)” value (SMARCA2 [1]; H1975, wild-type SMARCA4 cell line, maximum degradation as percentage of DMSO control) of the same compound?
**A.** The value was 98%.

**Q.** And the “SMARCA2 Dmax (%)” value (SMARCA2 [1]; [7])?
**A.** The value was 95%.

**Q.** What about the “colony growth / proliferation of wild-type SMARCA4 cells (in words)” value (wild-type SMARCA4 cells) of the same compound?
**A.** The value was “inhibited wild-type and mutant SMARCA4 cells”.

**Q.** And the “colony growth / proliferation of mutant SMARCA4 cells (in words)” value (mutant SMARCA4 cells)?
**A.** The value was “inhibited wild-type and mutant SMARCA4 cells”.

**Q.** What about the DC50 (SMARCA2 [2]; [5]) of the same compound?
**A.** Its DC50 is 11 nM.

**Q.** What about the DC50 (SMARCA2 [2]; [6]) of the same compound?
**A.** Its DC50 is 7 nM.

**Q.** And the “SMARCA2 degradation (western blot, in words)” value (SMARCA2 [2]; H1975, H1792, H2122, H441, increasing concentrations)?
**A.** Its value is “degraded SMARCA2 and SMARCA4”.

**Q.** And the DC50 (SMARCA2 [2]; H1975, wild-type SMARCA4 cell line, concentration at which 50% of the target protein is degraded)?
**A.** Its DC50 is 51 nM.

**Q.** And the DC50 (SMARCA2 [2]; [7])?
**A.** Its DC50 is 13 nM.

**Q.** What about the “SMARCA4 Dmax (%)” value (SMARCA4 [3]; [5]) of the same compound?
**A.** Its value is 99%.

**Q.** And the DC50 (SMARCA4 [3]; [5])?
**A.** The DC50 was 36 nM.

**Q.** What about the “SMARCA4 Dmax (%)” value (SMARCA4 [3]; [6]) of the same compound?
**A.** The value was 98%.

**Q.** What about the DC50 (SMARCA4 [3]; [6]) of the same compound?
**A.** Its DC50 is 18 nM.

**Q.** And the “SMARCA4 Dmax, span over cell lines” value (SMARCA4 [3]; H1975, H1792, H2122, H441 (Table 3))?
**A.** The value was 97-99%.

**Q.** What about the “SMARCA4 degradation (western blot, in words)” value (SMARCA4 [3]; H1975, H1792, H2122, H441, 0.001-10 μm, increasing concentrations) of the same compound?
**A.** The value was “degraded SMARCA2 and SMARCA4”.

**Q.** What about the “SMARCA4 Dmax (%)” value (SMARCA4 [3]; [8]) of the same compound?
**A.** Its value is 98%.

**Q.** What about the DC50 (SMARCA4 [3]; [8]) of the same compound?
**A.** The DC50 was 98 nM.

**Q.** And the “SMARCA4 Dmax (%)” value (SMARCA4 [3]; [7])?
**A.** The value was 97%.

**Q.** And the DC50 (SMARCA4 [3]; [7])?
**A.** The DC50 was 32 nM.

**Q.** Which results are given for `Nc1nnc(-c2ccccc2O)cc1N1CCN(Cc2ccc(N3CCN(CCOc4cccc5c4C(=O)N(C4CCC(=O)NC4=O)C5=O)CC3)c(F)c2)CC1` (centres unmarked) [Compound 102]?
**A.** PBRM1 expression (western blot, in words) (PBRM1): did not have a significant effect on the expression of PBRM1; SMARCA2 degradation (western blot, in words) (SMARCA2 [2]; [9]): efficiently degraded SMARCA2; SMARCA2 expression at 100 nM (in words) (SMARCA2 [2]): significantly inhibited SMARCA2 expression; SMARCA4 expression (western blot, in words) (SMARCA4 [4]): reduced expression of SMARCA4

**Q.** What does the source list for `Nc1nnc(-c2ccccc2O)cc1N1CCN(Cc2ccc(N3CCC(CN4CCN(c5ccc6c(c5)C(=O)N(C5CCC(=O)NC5=O)C6=O)CC4)CC3)c(F)c2)CC1` (centres unmarked) [Compound 103]?
**A.** PBRM1 expression (western blot, in words) (PBRM1): did not have a significant effect on the expression of PBRM1; SMARCA2 degradation (western blot, in words) (SMARCA2 [2]; [9]): efficiently degraded SMARCA2; SMARCA2 expression at 100 nM (in words) (SMARCA2 [2]): significantly inhibited SMARCA2 expression; SMARCA4 expression (western blot, in words) (SMARCA4 [4]): reduced expression of SMARCA4 in H1792 cells

Reference: US20250109121A1, “POTENT AND SELECTIVE SMARCA2 DEGRADING CHIMERIC MOLECULES AS CANCER THERAPEUTICS” (BOARD OF REGENTS, THE UNIVERSITY OF TEXAS SYSTEM, priority 2021, published 2025)
